Patent US20250099475A1, “METHODS OF TREATING HYPERTENSION BY PERIODIC SUPPRESSION OF ALDOSTERONE SYNTHASE” (Mineralys Therapeutics, Inc., priority 2022, published 2025)

What was measured:
hERG channel = biological target: T1, hERG channel (Homo sapiens, UniProt Q12809); test: Effects on hERG current, whole-cell patch-clamp in HEK293 cells; type: cell-based
T1 construct: expressed in transfected cells; host or cells: HEK293 cells stably expressing hERG
Method: The effects of Compound A on the human ether-à-go-go-related gene (hERG) current were evaluated using the whole-cell patch-clamp method in human embryonic kidney (HEK293) cells stably expressing the hERG channel. Cells were treated with Compound A at concentrations of 1, 3, 10, and 30 μmol/L, positive control (E-4031) at 0.1 μmol/L, or vehicle (0.3 v/v % dimethyl sulfoxide) for 10 minutes.

[1] = 13-week repeat-dose oral toxicology study in monkeys; type: in vivo, cynomolgus monkey; details: cynomolgus monkey, in vivo, oral
Method: The toxicologic profile of Compound A was assessed in several toxicology studies, including 13-week repeat-dose oral studies in Sprague Dawley rats and cynomolgus monkeys, a standard battery of genotoxicity studies, preliminary embryo-fetal development studies in rats and rabbits, and in vitro and in vivo phototoxicity studies. Rats and monkeys were selected for the general toxicology studies on the basis of pharmacology and metabolism data that indicated these animals would have metabolism similar to that of humans. Studies were performed in accordance with GLP regulations.
Doses in the 13-week toxicology studies were 0, 50, 150, 450 (female), and 600 (male) mg/kg/d in Sprague Dawley rats. In cynomolgus monkeys (females and males), the doses were 0, 10, 30, and 100 mg/kg/d. Hematoxylin-and-eosin-stained sections (nominal thickness of approximately 5 μm) were prepared from the formalin-fixed paraffin-embedded organs/tissues of all animals in the toxicology studies.

[2] = test system: subjects with hypertension; test: Double-blinded, randomized, placebo-controlled trial in subjects with hypertension (Example 2; AOBP week 4, serum K+); type: in vivo, human
Method: A double-blinded, randomized, placebo-controlled trial on the safety and efficacy of Compound A HBr was conducted on subjects with hypertension.
Hypertensive subjects were randomly assigned to one of the following six experimental groups: • (a) Placebo group: Oral administration of a placebo tablet matched for size, color, and shape of study drug once in the morning each day; • (b) 12.5 mg BID: Oral administration of one tablet containing 12.5 mg of Compound A HBr once in the morning and evening, 12 hours apart each day; • (c) 25 mg BID: Oral administration of one tablet containing 25 mg of Compound A HBr once in the morning and evening, 12 hours apart each day; • (d) 12.5 mg QD: Oral administration of one tablet containing 12.5 mg of Compound A HBr once in the morning each day; • (e) 50 mg QD: Oral administration of two tablets containing 25 mg of Compound A HBr once in the morning each day; and • (f) 100 mg QD: Oral administration of one tablet containing 100 mg of Compound A HBr once in the morning each day.
Subjects in the study met the following inclusion criteria: • (a) Male and nonpregnant, nonlactating female subjects ≥18 years of age; • (b) Written informed consent Health Insurance Portability and Accountability Act authorization, and local patient privacy required documentation for this study have been obtained; • (c) Automated office blood pressure (AOBP) with SBP ≥130 mm Hg; • (d) Background antihypertensive treatment of ≥2 drugs; • (e) PRA ≤1.0 ng/mL; • (f) Serum aldosterone ≥1 ng/dL; and • (g) Morning serum cortisol in normal range. If baseline serum cortisol <18 mcg/dL, then baseline Cortrosyn stimulation test administered at baseline.
Prospective subjects were also excluded based on the following exclusion criteria: • (a) Concomitant use of epithelial sodium channel inhibitors or mineralocorticoid receptor antagonists; • (b) Subjects with hypokalemia; • (c) Subjects with hyperkalemia; • (d) Subjects with serum cortisol <3 mcg/dL; • (e) Subjects with serum sodium <135 mEq/L; • (f) Subjects with estimated glomerular filtration rate <60 mL/min/1.73 m2; • (g) Subjects with type 1 or uncontrolled (hemoglobin A1c ≥9%) type 2 diabetes mellitus; • (h) Subjects with body mass index >40 kg/m2; • (i) Subjects with unstable angina; • (j) Subjects with SBP ≥175 mm Hg or DBP ≥100 mm Hg; • (k) Subjects with a decrease in SBP ≥20 mm Hg or DBP ≥10 mm Hg from sitting to standing position; • (l) Subjects who, in the opinion of the investigator, have suspected nonadherence to antihypertensive treatment; • (m) Subjects who, in the opinion of the investigator, have any major medical illness or symptoms; • (n) Subjects who, in the opinion of the investigator, have any acute or chronic medical or psychiatric condition; • (o) Subjects undergoing treatment with any of the following medications: • (i) Topical corticoids; • (ii) Sympathomimetic decongestants; • (iii) Theophylline; • (iv) Phosphodiesterase type 5 inhibitors; • (v) NSAIDs; • (vi) Intramuscular steroids; • (vii) Estrogen; • (viii) Cytochromes; • (ix) Strong CYP3A and CYP3A4 inducers; • (p) Subjects with known hypersensitivity to Compound A HBr or any of the excipients; and • (q) Subjects who are night-shift workers.

T1 sequence (Q12809 whole entry): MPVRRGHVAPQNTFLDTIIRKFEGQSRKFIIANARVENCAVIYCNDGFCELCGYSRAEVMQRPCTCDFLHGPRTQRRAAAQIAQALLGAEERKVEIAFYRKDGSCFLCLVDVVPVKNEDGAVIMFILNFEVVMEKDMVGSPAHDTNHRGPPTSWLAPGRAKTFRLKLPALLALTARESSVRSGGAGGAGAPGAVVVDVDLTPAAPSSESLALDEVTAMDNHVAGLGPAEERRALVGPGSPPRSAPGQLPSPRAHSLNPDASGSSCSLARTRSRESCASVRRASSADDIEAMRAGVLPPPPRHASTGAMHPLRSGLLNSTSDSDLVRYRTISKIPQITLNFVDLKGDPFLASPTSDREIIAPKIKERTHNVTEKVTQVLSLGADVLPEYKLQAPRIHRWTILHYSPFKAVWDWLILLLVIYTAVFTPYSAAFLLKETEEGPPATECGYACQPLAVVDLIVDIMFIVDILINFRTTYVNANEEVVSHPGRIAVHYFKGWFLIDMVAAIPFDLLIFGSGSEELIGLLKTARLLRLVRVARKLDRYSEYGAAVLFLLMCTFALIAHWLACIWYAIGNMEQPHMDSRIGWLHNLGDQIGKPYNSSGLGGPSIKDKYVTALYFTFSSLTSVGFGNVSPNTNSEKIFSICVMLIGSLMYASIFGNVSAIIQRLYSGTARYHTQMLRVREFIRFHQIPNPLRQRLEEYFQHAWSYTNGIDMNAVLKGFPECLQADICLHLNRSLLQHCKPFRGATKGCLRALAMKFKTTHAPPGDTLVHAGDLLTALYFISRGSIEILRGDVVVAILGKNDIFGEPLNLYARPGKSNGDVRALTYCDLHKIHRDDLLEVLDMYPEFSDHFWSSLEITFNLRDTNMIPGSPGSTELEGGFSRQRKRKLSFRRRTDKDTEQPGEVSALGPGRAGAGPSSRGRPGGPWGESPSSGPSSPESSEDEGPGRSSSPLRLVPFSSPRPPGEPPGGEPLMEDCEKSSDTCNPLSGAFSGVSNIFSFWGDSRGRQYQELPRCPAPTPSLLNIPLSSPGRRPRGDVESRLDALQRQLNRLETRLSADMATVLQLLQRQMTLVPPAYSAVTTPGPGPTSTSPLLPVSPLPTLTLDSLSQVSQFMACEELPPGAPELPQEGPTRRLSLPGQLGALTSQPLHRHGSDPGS

## CC(=O)N[C@H]1CC[C@H](NC(=O)CN2CCN(c3nncc(-c4ccc(C)cc4)n3)CC2)CC1 [Compound A]
hERG channel
  IC50: > 30 µM
hERG channel; human, HEK293 cells stably expressing the hERG channel, 30 μmol/L
  inhibition at 10 min, 30 μmol/L: 27%
[1]; female monkeys
  NOAEL at 13 weeks: 10 mg/kg/day
[1]; male monkeys
  NOAEL at 13 weeks: 30 mg/kg/day

## CC(=O)N[C@H]1CC[C@H](NC(=O)CN2CCN(c3nncc(-c4ccc(C)cc4)n3)CC2)CC1 [Compound A HBr]
[2]; 12.5 mg BID
  Reduction in systolic blood pressure from baseline at week 4, dose cohort vs placebo, Mean (SEM): 1.2 (5.2)
[2]; 12.5 mg BID, N 10
  Systolic BP by AOBP, Change (Wk 4 v. BL), Mean: −5.3 mmHg
  Systolic BP by AOBP, Change (Wk 4 v. BL), Median: −4.5 mmHg
  Systolic BP by AOBP, Week 4, Mean: 138 mmHg
  Systolic BP by AOBP, Week 4, Median: 133 mmHg
[2]; 12.5 mg QD
  Reduction in systolic blood pressure from baseline at week 4, dose cohort vs placebo, Mean (SEM): 3.85 (6.1)
[2]; 12.5 mg QD, N 10
  Systolic BP by AOBP, Change (Wk 4 v. BL), Mean: −7.9 mmHg
  Systolic BP by AOBP, Change (Wk 4 v. BL), Median: −2.25 mmHg
  Systolic BP by AOBP, Week 4, Mean: 138.9 mmHg
  Systolic BP by AOBP, Week 4, Median: 139 mmHg
[2]; 25 mg BID
  Reduction in systolic blood pressure from baseline at week 4, dose cohort vs placebo, Mean (SEM): 11.5 (5.1)
[2]; 25 mg BID, N 11
  Systolic BP by AOBP, Change (Wk 4 v. BL), Mean: −15.5 mmHg
  Systolic BP by AOBP, Change (Wk 4 v. BL), Median: −20.0 mmHg
  Systolic BP by AOBP, Week 4, Mean: 132.1 mmHg
  Systolic BP by AOBP, Week 4, Median: 132 mmHg
[2]; 50 mg QD
  Reduction in systolic blood pressure from baseline at week 4, dose cohort vs placebo, Mean (SEM): 6.3 (4.9)
[2]; 50 mg QD, N 12
  Systolic BP by AOBP, Change (Wk 4 v. BL), Mean: −10.3 mmHg
  Systolic BP by AOBP, Change (Wk 4 v. BL), Median: −8.75 mmHg
  Systolic BP by AOBP, Week 4, Mean: 132.1 mmHg
  Systolic BP by AOBP, Week 4, Median: 133 mmHg
[2]; 100 mg QD
  Reduction in systolic blood pressure from baseline at week 4, dose cohort vs placebo, Mean (SEM): 15 (5.4)
[2]; 100 mg QD cohort
  median increase in serum potassium (K+): 0.2 mmol/L
  subjects with dose held or dose reduction related to elevated K+: No subjects
[2]; 100 mg QD, N 10
  Systolic BP by AOBP, Change (Wk 4 v. BL), Mean: −19.0 mmHg
  Systolic BP by AOBP, Change (Wk 4 v. BL), Median: −20.25 mmHg
  Systolic BP by AOBP, Week 4, Mean: 126.1 mmHg
  Systolic BP by AOBP, Week 4, Median: 124 mmHg
